According to patent US20240158446A1, “CYCLIC COMPOUND HAVING SELECTIVE INHIBITORY ACTION ON KRAS OVER HRAS AND NRAS” (CHUGAI SEIYAKU KABUSHIKI KAISHA, priority 2021, published 2024):

What was measured:
[1] = molecular target: GDP-bound NRAS wild-type protein (Homo sapiens, UniProt P01111); test: Binding to NRAS by surface plasmon resonance (SPR), Single Cycle Kinetics; conditions: SPR; GDP-bound NRAS wild-type protein vs GDP-bound KRAS wild-type protein; KD ratio class
[2] = molecular target: GDP-bound HRAS wild-type protein (Homo sapiens, UniProt P01112); test: Binding to HRAS by surface plasmon resonance (SPR), Single Cycle Kinetics; conditions: SPR; GDP-bound HRAS wild-type protein vs GDP-bound KRAS wild-type protein; KD ratio class
[3] = molecular target: GDP-bound KRAS wild-type protein (Homo sapiens, UniProt P01116); test: Binding to KRAS by surface plasmon resonance (SPR), Single Cycle Kinetics; conditions: SPR, Single Cycle Kinetics, 1:1 binding model; GDP-bound KRAS wild-type protein; read-out: KRAS KD
GDP-bound KRAS wild-type protein, sequence (P01116 whole entry): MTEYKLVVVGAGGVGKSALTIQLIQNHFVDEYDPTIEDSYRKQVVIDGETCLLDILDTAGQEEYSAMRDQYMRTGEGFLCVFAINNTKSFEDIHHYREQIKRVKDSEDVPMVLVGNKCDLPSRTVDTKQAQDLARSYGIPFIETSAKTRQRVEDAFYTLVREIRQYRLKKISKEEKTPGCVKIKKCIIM

GDP-bound NRAS wild-type protein, sequence (P01111 whole entry): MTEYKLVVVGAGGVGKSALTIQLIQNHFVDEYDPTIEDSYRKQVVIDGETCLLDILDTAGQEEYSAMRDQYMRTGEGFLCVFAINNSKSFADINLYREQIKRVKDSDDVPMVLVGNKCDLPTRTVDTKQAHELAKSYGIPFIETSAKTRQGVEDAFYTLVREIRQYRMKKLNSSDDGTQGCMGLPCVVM
GDP-bound HRAS wild-type protein, sequence (P01112 whole entry): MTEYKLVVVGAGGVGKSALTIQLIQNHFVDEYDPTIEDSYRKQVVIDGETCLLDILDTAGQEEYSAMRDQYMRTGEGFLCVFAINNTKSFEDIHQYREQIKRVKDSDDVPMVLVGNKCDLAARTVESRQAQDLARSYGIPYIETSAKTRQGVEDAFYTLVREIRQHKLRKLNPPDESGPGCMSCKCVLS

| SMILES | NRAS/KRAS (ratio of KD value for NRAS to KD value for KRAS) [1] | HRAS/KRAS (ratio of KD value for HRAS to KD value for KRAS) [2] | Kd [3] [pM] |
| --- | --- | --- | --- |
| CC[C@H](C)[C@@H]1NC(=O)[C@H](CC(C)C)N(C)C(=O)C[C@@H](C(=O)N(C)C)N(C)C(=O)[C@H](C2CCCC2)N(C)C(=O)C2(CCC2)NC(=O)[C@@H]2[C@@H](OCC(F)F)CCN2C(=O)[C@H](CCc2cc(F)c(C(F)(F)F)c(F)c2)NC(=O)CN(C)C(=O)[C@H](Cc2ccc(C(F)(F)F)cc2)N2CC/C=C\C[C@@H](C2=O)N(C)C(=O)CN(C)C1=O [PP1534, (2S,8S,13S,14S,20S,23S,27S,30S,36S,38Z)-20-cyclopentyl-13-(2,2-difluoroethoxy)-8-[2-[3,5-difluoro-4-(trifluoromethyl)phenyl]ethyl]-27-isobutyl-N,N,4,19,22,26,32,35-octamethyl-30-[(1S)-1-methylpropyl]-3,6,9,15,18,21,25,28,31,34,42-undecaoxo-2-[[4-(trifluoromethyl)phenyl]methyl]spiro[1,4,7,10,16,19,22,26,29,32,35-undecazatricyclo[34.5.1.0^10,14]dotetracont-38-ene-17,1′-cyclobutane]-23-carboxamide] | AA (a compound having 20 or more is denoted as AA) | A (a compound having 10 or more and less than 20 is denoted as A) | 130 |
| CC[C@H](C)[C@@H]1NC(=O)[C@H](CC2CCCC2)N(C)C(=O)C[C@@H](C(=O)N(C)C)N(C)C(=O)[C@@H](C2CCCC2)N(C)C(=O)C2(CCC2)NC(=O)[C@@H]2[C@@H](OCC(F)F)CCN2C(=O)[C@@H](CCc2cc(F)c(C(F)(F)F)c(F)c2)NC(=O)CN(C)C(=O)[C@@H](Cc2ccc(C)cc2)N2CC/C=C\C[C@H](C2=O)N(C)C(=O)CN(C)C1=O [PP1536] | A (a compound having 10 or more and less than 20 is denoted as A) | B (a compound having 3 or more and less than 10 is denoted as B) | 200 |
| CC[C@H](C)[C@@H]1NC(=O)[C@H](CC2CC2)N(C)C(=O)C[C@@H](C(=O)N(C)CC)N(C)C(=O)[C@H](C2CCCC2)N(C)C(=O)C2(CCC2)NC(=O)[C@@H]2C[C@H](C)CN2C(=O)[C@H](CCc2cc(F)c(C(F)(F)F)c(F)c2)NC(=O)CN(C)C(=O)[C@H](Cc2ccc(C(F)(F)F)cc2)N2CC/C=C\C[C@@H](C2=O)N(C)C(=O)CN(C)C1=O [PP1537, (2S,8S,12S,14S,20S,23S,27S,30S,36S,38Z)-20-cyclopentyl-27-(cyclopropylmethyl)-8-[2-[3,5-difluoro-4-(trifluoromethyl)phenyl]ethyl]-N-ethyl-N,4,12,19,22,26,32,35-octamethyl-30-[(1S)-1-methylpropyl]-3,6,9,15,18,21,25,28,31,34,42-undecaoxo-2-[[4-(trifluoromethyl)phenyl]methyl]spiro[1,4,7,10,16,19,22,26,29,32,35-undecazatricyclo[34.5.1.0^10,14]dotetracont-38-ene-17,1′-cyclobutane]-23-carboxamide] | AA (a compound having 20 or more is denoted as AA) | A (a compound having 10 or more and less than 20 is denoted as A) | 67 |
| CC[C@H](C)[C@@H]1NC(=O)[C@H](CC2CC2)N(C)C(=O)C[C@@H](C(=O)N(C)CC)N(C)C(=O)[C@H](C2CCCC2)N(C)C(=O)C2(CCC2)NC(=O)[C@@H]2CC(F)(F)CN2C(=O)[C@H](CCc2cc(F)c(C(F)(F)F)c(F)c2)NC(=O)CN(C)C(=O)[C@H](Cc2ccc(C(F)(F)F)cc2)N2CC/C=C\C[C@@H](C2=O)N(C)C(=O)CN(C)C1=O [PP1538] | A (a compound having 10 or more and less than 20 is denoted as A) | B (a compound having 3 or more and less than 10 is denoted as B) | 86 |
| CCO[C@@H]1C[C@H]2C(=O)NC3(CCC3)C(=O)N(C)[C@@H](C3CCCC3)C(=O)N(C)[C@H](C(=O)N(C)CC)CC(=O)N(C)[C@@H](CC)C(=O)N[C@@H]([C@@H](C)CC)C(=O)N(C)CC(=O)N(C)[C@H]3C/C=C\CCN(C3=O)[C@@H](CC3CCCCC3)C(=O)N(C)CC(=O)N[C@@H](CCc3cc(F)c(C(F)(F)F)c(F)c3)C(=O)N2C1 [PP1552] | A (a compound having 10 or more and less than 20 is denoted as A) | A (a compound having 10 or more and less than 20 is denoted as A) | 190 |
| CCO[C@@H]1C[C@H]2C(=O)NC3(CCC3)C(=O)N(C)[C@@H](C3CCCC3)C(=O)N(C)[C@H](C(=O)N(C)CC)CC(=O)N(C)[C@@H](CC)C(=O)N[C@@H]([C@@H](C)CC)C(=O)N(C)CC(=O)N(C)[C@H]3C/C=C\CCN(C3=O)[C@@H](CC3CCC(F)(F)CC3)C(=O)N(C)CC(=O)N[C@@H](CCc3cc(F)c(C(F)(F)F)c(F)c3)C(=O)N2C1 [PP1553, (2S,8S,12R,14S,20S,23S,27S,30S,36S,38Z)-20-cyclopentyl-2-[(4,4-difluorocyclohexyl)methyl]-8-[2-[3,5-difluoro-4-(trifluoromethyl)phenyl]ethyl]-12-ethoxy-N,27-diethyl-N,4,19,22,26,32,35-heptamethyl-30-[(1S)-1-methylpropyl]-3,6,9,15,18,21,25,28,31,34,42-undecaoxo-spiro[1,4,7,10,16,19,22,26,29,32,35-undecazatricyclo[34.5.1.0^10,14]dotetracont-38-ene-17,1′-cyclobutane]-23-carboxamide] | A (a compound having 10 or more and less than 20 is denoted as A) | A (a compound having 10 or more and less than 20 is denoted as A) | 130 |
| CCO[C@@H]1C[C@H]2C(=O)NC3(CC(C)(C)C3)C(=O)N(C)[C@@H](C3CCCC3)C(=O)N(C)[C@H](C(=O)N(C)C)CC(=O)N(C)[C@@H](CC)C(=O)N[C@@H]([C@@H](C)CC)C(=O)N(C)CC(=O)N(C)[C@H]3C/C=C\CCN(C3=O)[C@@H](Cc3ccc(C(F)(F)F)cc3)C(=O)N(C)CC(=O)N[C@@H](CCc3ccc(C(F)(F)F)c(OC)c3)C(=O)N2C1 [PP1559] | A (a compound having 10 or more and less than 20 is denoted as A) | A (a compound having 10 or more and less than 20 is denoted as A) | 47 |
| CCC[C@H]1C(=O)N[C@@H]([C@@H](C)CC)C(=O)N(C)CC(=O)N(C)[C@H]2C/C=C\CCN(C2=O)[C@@H](Cc2ccc(C(F)(F)F)cc2)C(=O)N(C)CC(=O)N[C@@H](CCc2ccc(C(F)(F)F)c(OC)c2)C(=O)N2C[C@H](OCC)C[C@H]2C(=O)NC2(CC(C)(C)C2)C(=O)N(C)[C@@H](C2CCCC2)C(=O)N(C)[C@H](C(=O)N(C)C)CC(=O)N1C [PP1560] | A (a compound having 10 or more and less than 20 is denoted as A) | B (a compound having 3 or more and less than 10 is denoted as B) | 69 |
| CCO[C@@H]1C[C@H]2C(=O)NC3(CC(C)(C)C3)C(=O)N(C)[C@@H](C3CCCC3)C(=O)N(C)[C@H](C(=O)N(C)C)CC(=O)N(C)[C@@H](CC3CC3)C(=O)N[C@@H]([C@@H](C)CC)C(=O)N(C)CC(=O)N(C)[C@H]3C/C=C\CCN(C3=O)[C@@H](Cc3ccc(C(F)(F)F)cc3)C(=O)N(C)CC(=O)N[C@@H](CCc3ccc(C(F)(F)F)c(OC)c3)C(=O)N2C1 [PP1563] | A (a compound having 10 or more and less than 20 is denoted as A) | A (a compound having 10 or more and less than 20 is denoted as A) | 48 |
| CCO[C@@H]1C[C@H]2C(=O)NC3(CC(C)(C)C3)C(=O)N(C)[C@@H](C3CCCC3)C(=O)N(C)[C@H](C(=O)N(C)C)CC(=O)N(C)[C@@H](CC3CC3)C(=O)N[C@@H]([C@@H](C)CC)C(=O)N(C)CC(=O)N(C)[C@H]3C/C=C\CCN(C3=O)[C@@H](Cc3ccc(C(F)(F)F)cc3)C(=O)N(C)CC(=O)N[C@@H](CCc3cc(F)c(C(F)(F)F)c(F)c3)C(=O)N2C1 [PP1568] | A (a compound having 10 or more and less than 20 is denoted as A) | A (a compound having 10 or more and less than 20 is denoted as A) | 31 |
| CCCOC[C@H]1C(=O)N[C@@H]([C@@H](C)CC)C(=O)N(C)CC(=O)N(C)[C@H]2C/C=C\CCN(C2=O)[C@@H](Cc2ccc(C(F)(F)F)cc2)C(=O)N(C)CC(=O)N[C@@H](CCc2cc(F)c(C(F)(F)F)c(F)c2)C(=O)N2C[C@H](OCC)C[C@H]2C(=O)NC2(CCC2)C(=O)N(C)[C@@H](C2CCCC2)C(=O)N(C)[C@H](C(=O)N(C)CC)CC(=O)N1C [PP1569] | A (a compound having 10 or more and less than 20 is denoted as A) | B (a compound having 3 or more and less than 10 is denoted as B) | 110 |
| CC[C@H](C)[C@@H]1NC(=O)[C@H](CC2CC2)N(C)C(=O)C[C@@H](C(=O)N(C)CC)N(C)C(=O)[C@H](C2CCCC2)N(C)C(=O)C2(CC(C)(C)C2)NC(=O)[C@@H]2C[C@@H](F)CN2C(=O)[C@H](CCc2cc(F)c(C(F)(F)F)c(F)c2)NC(=O)CN(C)C(=O)[C@H](Cc2ccc(C(F)(F)F)cc2)N2CC/C=C\C[C@@H](C2=O)N(C)C(=O)CN(C)C1=O [PP1570] | AA (a compound having 20 or more is denoted as AA) | A (a compound having 10 or more and less than 20 is denoted as A) | 51 |
| CC[C@H](C)[C@@H]1NC(=O)[C@H](CC2CC2)N(C)C(=O)C[C@@H](C(=O)N(CC)CC)N(C)C(=O)[C@H](C2CCCC2)N(C)C(=O)C2(CC(C)(C)C2)NC(=O)[C@@H]2C[C@@H](F)CN2C(=O)[C@H](CCc2cc(F)c(C(F)(F)F)c(F)c2)NC(=O)CN(C)C(=O)[C@H](Cc2ccc(C(F)(F)F)cc2)N2CC/C=C\C[C@@H](C2=O)N(C)C(=O)CN(C)C1=O [PP1571] | A (a compound having 10 or more and less than 20 is denoted as A) | A (a compound having 10 or more and less than 20 is denoted as A) | 150 |
